Results as given in patent US10538561B2, “Peptide for treating inflammatory diseases” (priority 2015, dated 2020).

Tests used:
Caspase-3 enzyme = assay: Caspase-3 assay; assay type: cell-based, Human; conditions: HaCaT, 48 h
Description: Cell lines: Human Keratinocytes (HaCaT); Test Item (TI): IS 181; Treatment regimen: Multiple additions (2)—48 hours; Concentration range: 100 μg/ml to 5000 μg/ml (Duplicate wells); Sera Condition: Medium containing 1% FBS. […] Cells were lysed and protein was estimated. The above lysates were processed further for Caspase-3 enzyme activity assay using colorimetric based method. Percentage induction of Caspase-3 enzyme activation with respect to untreated; Positive control: Anthralin. IS 181 led to induction of Caspase-3 enzyme activation in HaCaT cells at all the concentrations tested except at 100 μg/ml. […] (FIGS. 7A-7B)

IL-1-β = assay: LPS stimulated IL-1-β secretion in RAW264.7; assay type: cell-based, Mouse; conditions: for IL-1-β % decrease with respect to LPS / IL-1-β Conc: RAW264.7 + LPS, 24 h
Description: Effect on pro-inflammatory cytokines against LPS stimulation: TNF-α; IL-6; IL-1-β: Cell lines: Murine macrophage cell line (RAW264.7); test item: IS181; experimental steps: pretreatment of cells with TI for 2 hours; stimulation with LPS (100 ng/ml) for 24 hours; supernatant collection for cytokine analysis; concentration range: o.1 μg/ml-500 μg/ml (duplicate wells); Cytokines: TNF-α; IL-6; IL-1-β; Method of estimating cytokines: ELISA; positive control: dexamethasone.
Cell line: RAW264.7 (Mouse macrophages); TI treatment regimen: Pretreatment for 2 h; TI Concentration range: 0.1 μg/ml-500 μg/ml (duplicate wells); LPS stimulation: 100 ng/ml; Time point for supernatants collection: 24 h; Method of estimation: ELISA; Positive control: Dexamethasone

TNF-α = TNF-α level in TNF-α stimulated HaCaT; assay type: cell-based, Human; conditions: 24 h
Description: Effect on pro-inflammatory cytokines against TNF-α/LPS+PMA stimulation: TNF-α; IFN-γ; TARC; TSLP; IL-6; IL-8: Cell lines: Human keratinocytes (HaCaT); test item (TI); IS181; experimental steps: pre-treatment of cells with TI for 2 hours; stimulation with TNF-α: 20 ng/ml; stimulation with LPS+PMA-10 μg/ml LPS+40 ng/ml PMA; supernatant collection for cytokine analysis after 24 hours; concentration range: 0.1 μg/ml-100 μg/ml (duplicate wells); cytokines: TNF-α; IFN-γ; TARC; TSLP; IL-6; IL-8. Method of estimating cytokines: ELISA; positive control: dexamethasone.
Cell line: HaCaT (Human Keratinocytes); TI Treatment regimen: Pretreatment for 2 h; TI Concentration range: 0.1 μg/ml-100 μg/ml (duplicate wells); TNF-α stimulation: 20 ng/ml; LPS+PMA stimulation: 10 μg/ml LPS+40 ng/ml PMA; Time point for supernatants collection: 24 h; Method of estimation: ELISA; Positive control: Dexamethasone

[1] = Cell viability of THP-1 (MTT); assay type: cell-based, Human; conditions: human, THP-1 monocytic cells, THP-1, 24 h, read-out: Cell viability (wrt Untreated)
Description: (§1) Cell lines: Human monocytic cell line (THP-1); test item: IS181: treatment regimen; single addition—24 hours; concentration range: 10 μg/ml-5000 μg/ml. A) Identification of non-cytotoxic concentrations: THP-1 cells were treated with IS181 for 24 hours; effect on cell viability was assessed by MTT assay; concentrations leading to >75% cell viability were selected for IL-23 assay. […] Positive control: curcumin. […] Since supernatants corresponding to 5 concentrations were to be tested for […], we also tested 1 mg/ml.

[2] = system: Human monocytic cell line (THP-1); assay: Cell viability of THP-1 (MTT); assay type: cell-based
Description: as §1

IL-23 = IL-23 secretion in LPS+IFN-γ stimulated THP-1; assay type: cell-based, Human; conditions: THP-1 + LPS + IFN-γ, 24 h
Description: as §1

[3] = system: Cyclobutane Pyrimidine Dimers (CPD); assay: UVB damage: cyclobutane pyrimidine dimers (ELISA); assay type: cell-based, human; conditions: HaCaT
Description: Effect on Cyclobutane Pyrimidine Dimers (CPD); Effect on 8-oxo-G formation: Cell line: HaCaT (human keratinocytes); test items: IS 181; concentration range: 0.1-100 μg/ml (Duplicate wells). Method of estimation: Plating of cells; Sera starvation with 0.1% FBS (24 hours); treatment of cells with test items (24 hours); UVB damage (30 mJ/cm2)+Test items addition (24 hours); Cyclobutane pyrimidine dimers (CPD) and 8-oxo-G estimation using ELISA.

H-WVQRVVEKFLK-OH [IS181, H-Trp-Val-Gln-Arg-Val-Val-Glu-Lys-Phe-Leu-Lys-OH]
Percentage induction of caspase-3 enzyme activation with respect to untreated (Caspase-3 enzyme; 100 μg/ml): −20.37 | Percentage induction of caspase-3 enzyme activation with respect to untreated (Caspase-3 enzyme; 500 μg/ml): 7.41 | Percentage induction of caspase-3 enzyme activation with respect to untreated (Caspase-3 enzyme; 1000 μg/ml): 29.63 | Percentage induction of caspase-3 enzyme activation with respect to untreated (Caspase-3 enzyme; 2000 μg/ml): 50 | IL-1-β inhibition as compared to LPS stimulated levels (IL-1-β; RAW264.7): good extent of IL-1-β inhibition | IL-1-β % decrease with respect to LPS (IL-1-β; 0.1 μ/ml): 90.0% | IL-1-β Conc (IL-1-β; 0.1 μ/ml): 2.2 pg/mL | IL-1-β % decrease with respect to LPS (IL-1-β; 1 μ/ml): 30.3% | IL-1-β Conc (IL-1-β; 1 μ/ml): 15.4 pg/mL | IL-1-β % decrease with respect to LPS (IL-1-β; 5 μ/ml): 53.7% | IL-1-β Conc (IL-1-β; 5 μ/ml): 10.2 pg/mL | IL-1-β % decrease with respect to LPS (IL-1-β; 10 μ/ml): 71.9% | IL-1-β Conc (IL-1-β; 10 μ/ml): 6.2 pg/mL | IL-1-β % decrease with respect to LPS (IL-1-β; 100 μ/ml): 42.4% | IL-1-β Conc (IL-1-β; 100 μ/ml): 12.7 pg/mL | IL-1-β % decrease with respect to LPS (IL-1-β; 500 μ/ml): 72.6% | IL-1-β Conc (IL-1-β; 500 μ/ml): 6.1 pg/mL | decrease in IL-1-β level (IL-1-β; RAW264.7, 0.1 μg/ml-500 μg/ml): 30.3%-90% | TNF-α % decrease with respect to TNF-α (TNF-α; 0.1 μg/ml): −7.5% | TNF-α Conc (TNF-α; 0.1 μg/ml): 22731.8 pg/mL | TNF-α % decrease with respect to TNF-α (TNF-α; 1 μg/ml): 5.8% | TNF-α Conc (TNF-α; 1 μg/ml): 19924.1 pg/mL | TNF-α % decrease with respect to TNF-α (TNF-α; 5 μg/ml): −8.1% | TNF-α Conc (TNF-α; 5 μg/ml): 22852.1 pg/mL | TNF-α % decrease with respect to TNF-α (TNF-α; 10 μg/ml): −15.7% | TNF-α Conc (TNF-α; 10 μg/ml): 24469.9 pg/mL | TNF-α % decrease with respect to TNF-α (TNF-α; 100 μg/ml): −18.8% | TNF-α Conc (TNF-α; 100 μg/ml): 25125.0 pg/mL | viability at 24 h, 10 μg/ml ([1]; 10 μg/ml): 81.2% | viability at 24 h, 50 μg/ml ([1]; 50 μg/ml): 84.2% | viability at 24 h, 100 μg/ml ([1]; 100 μg/ml): 90.4% | viability at 24 h, 500 μg/ml ([1]; 500 μg/ml): 88.5% | viability at 24 h, 1 mg/ml ([1]; 1 mg/ml): 61.3% | viability at 24 h, 5 mg/ml ([1]; 5 mg/ml): 15% | cytotoxicity ([2]; THP-1, 10 μg/ml-500 μg/ml): 25% | cytotoxicity ([2]; THP-1, 1 mg/ml): 38.7% | cytotoxicity ([2]; THP-1, 5 mg/ml): 85% | % Inhibition of IL-23 wrt Control (LPS + IFN-γ) (IL-23; 10 μg/ml): 69.8% | Conc. of IL-23 (IL-23; 10 μg/ml): 25.4 pg/mL | % Inhibition of IL-23 wrt Control (LPS + IFN-γ) (IL-23; 50 μg/ml): 66.3% | Conc. of IL-23 (IL-23; 50 μg/ml): 25.3 pg/mL | % Inhibition of IL-23 wrt Control (LPS + IFN-γ) (IL-23; 100 μg/ml): 72.3% | Conc. of IL-23 (IL-23; 100 μg/ml): 23.3 pg/mL | % Inhibition of IL-23 wrt Control (LPS + IFN-γ) (IL-23; 500 μg/ml): −10.9% | Conc. of IL-23 (IL-23; 500 μg/ml): 93.3 pg/mL | % Inhibition of IL-23 wrt Control (LPS + IFN-γ) (IL-23; 1000 μg/ml): 39.6% | Conc. of IL-23 (IL-23; 1000 μg/ml): 50.6 pg/mL | decrease in CPD ([3]; UVB 30 mJ/cm2, 10 μg/ml): 28% | decrease in CPD ([3]; UVB 30 mJ/cm2, 100 μg/ml): 26%
